Measurements from patent US20230192617A1, “AZABICYCLIC(THIO)AMIDES AS FUNGICIDAL COMPOUNDS” (Bayer CropScience Aktiengesellschaft, priority 2020, published 2023).

Experiments:
[1] = Measurement of Log P values by HPLC on reversed phase columns (EEC directive 79/831 Annex V.A8); type: physicochemical; settings: reversed phase HPLC column, method [a]: LC-UV, acidic range, 0.1% formic acid in water and acetonitrile as eluent
Method: A-1.1. Measurement of Log P Values
Measurement of Log P values as provided herein was performed according to EEC directive 79/831 Annex V.A8 by HPLC (High Performance Liquid Chromatography) on reversed phase columns with the following methods:
^[a] Log P value is determined by measurement of LC-UV, in an acidic range, with 0.1% formic acid in water and acetonitrile as eluent (linear gradient from 10% acetonitrile to 95% acetonitrile).
^[b] Log P value is determined by measurement of LC-UV, in a neutral range, with 0.001 molar ammonium acetate solution in water and acetonitrile as eluent (linear gradient from 10% acetonitrile to 95% acetonitrile).
^[c] Log P value is determined by measurement of LC-UV, in an acidic range, with 0.1% phosphoric acid and acetonitrile as eluent (linear gradient from 10% acetonitrile to 95% acetonitrile).
If more than one Log P value is available within the same method, all the values are given and separated by “+”. […]

Botrytis cinerea [2] = assay: In vivo preventive test on Botrytis cinerea (grey mould); settings: 500 ppm of active ingredient, preventive spray on gherkin or cabbage, evaluated 4 to 5 days after inoculation, read-out: efficacy
Method: B-2. In Vivo Preventive Test on Botrytis cinerea (Grey Mould) [table] The active ingredients were made soluble and homogenized in a mixture of Dimethyl sulfoxide/Acetone/Tween® 80 and then diluted in water to the desired concentration. The young plants of gherkin or cabbage were treated by spraying the active ingredient prepared as described above. Control plants were treated only with an aqueous solution of Acetone/Dimethyl sulfoxide/Tween® 80. After 24 hours, the plants were contaminated by spraying the leaves with an aqueous suspension of Botrytis cinerea spores. The contaminated gherkin plants were incubated for 4 to 5 days at 17° C. and at 90% relative humidity. The contaminated cabbage plants were incubated for 4 to 5 days at 20° C. and at 100% relative humidity.

Alternaria alternata = Alternaria alternata in vitro cell test; type: cell-based; settings: 120 h, 20 ppm of active ingredient, liquid culture, 5 days incubation, spectrometric measurement of mycelium growth, read-out: efficacy (inhibition of fungal growth)
Method: (§1) B-6. Alternaria alternata In Vitro Cell Test [table] Fungicides were solubilized in DMSO and the solution used to prepare the required range of concentrations. The final concentration of DMSO used in the assay was ≤1%. A spore suspension of A. alternata was prepared and diluted to the desired spore density. Fungicides were evaluated for their ability to inhibit spore germination and mycelium growth in liquid culture assay. The compounds were added in the desired concentration to the culture medium with spores. After 5 days incubation, fungi-toxicity of compounds was determined by spectrometric measurement of mycelium growth. Inhibition of fungal growth was determined by comparing the absorbance values in wells containing the fungicides with the absorbance in control wells without fungicides.

[3] = test system: Colletotrichum lindemuthianum; assay: B-8. Colletotrichum lindemuthianum in vitro cell test; type: cell-based; settings: 144 h, 20 ppm of active ingredient, 6 days incubation, liquid culture, absorbance, read-out: efficacy (inhibition of fungal growth)
Method: as §1, with “B-8. Colletotrichum lindemuthianum In” for “B-6. Alternaria alternata In”, “of C. lindemuthianum” for “of A. alternata”, “inhibit spores” for “inhibit spore”, “After 6” for “After 5”

Pyrenophora teres = assay: B-10. Pyrenophora teres in vitro cell test; type: cell-based; settings: 144 h, 20 ppm of active ingredient, 6 days incubation, liquid culture, absorbance, read-out: efficacy (inhibition of fungal growth)
Method: as §1, with “B-10. Pyrenophora teres” for “B-6. Alternaria alternata”, “P. teres” for “A. alternata”, “6” for “5”

Botrytis cinerea [4] = assay: B-11. Botrytis cinerea in vitro cell test; type: cell-based; settings: 144 h, 20 ppm of active ingredient, 6 days incubation, liquid culture, absorbance, read-out: efficacy (inhibition of fungal growth)
Method: as §1, with “B-11. Botrytis cinerea” for “B-6. Alternaria alternata”, “B. cinerea” for “A. alternata”, “6” for “5”

Alternaria brassicae = assay: In vivo preventive test on Alternaria brassicae (leaf spot on radish or cabbage); settings: 500 ppm of active ingredient, preventive spray on radish or cabbage, evaluated 3 to 4 days after inoculation, read-out: efficacy
Method: B-1. In Vivo Preventive Test on Alternaria brassicae (Leaf Spot on Radish or Cabbage) [table] The active ingredients were made soluble and homogenized in a mixture of Dimethyl sulfoxide/Acetone/Tween® 80 and then diluted in water to the desired concentration. The young plants of radish or cabbage were treated by spraying the active ingredient prepared as described above. Control plants were treated only with an aqueous solution of Acetone/Dimethyl sulfoxide/Tween® 80. After 24 hours, the plants were contaminated by spraying the leaves with an aqueous suspension of Alternaria brassicae spores. The contaminated radish or cabbage plants were incubated for 3 to 4 days at 20° C. and at 100% relative humidity.

| SMILES | chromatographic logP [1] | pest or weed control at 500 ppm (Botrytis cinerea [2]) [%] | inhibition at 20 ppm (Alternaria alternata) [%] | inhibition at 20 ppm [3] [%] | inhibition at 20 ppm (Pyrenophora teres) [%] | inhibition at 20 ppm (Botrytis cinerea [4]) [%] | pest or weed control at 500 ppm (Alternaria brassicae) [%] |
| --- | --- | --- | --- | --- | --- | --- | --- |
| O=C(C[C@H]1C[C@@]12CCc1cc(Br)ccc12)c1c(Oc2cccc(C(F)(F)F)c2)nnc2ccccc12 (mixture of isomers) [I-097] | 4.74 | 80 to 89 | 80 to 89 | 90 to 100 | 90 to 100 | 90 to 100 | – |
| C[C@H](NC(=O)c1c(Oc2cccc(C(F)(F)F)c2)nnc2ccccc12)c1ccc(Cl)s1 (racemic) [I-080] | 4.1 | – | 90 to 100 | 90 to 100 | 90 to 100 | 90 to 100 | – |
| O=C(N[C@H]1CCCc2sc(C3CC3)nc21)c1c(Oc2cccc(C(F)(F)F)c2)nnc2ccccc12 (racemic) [I-091] | 3.92 | – | 70 to 79 | 80 to 89 | 90 to 100 | 90 to 100 | – |
| O=C(N[C@H]1CCSc2ccc(F)cc21)c1c(Oc2cccc(C(F)(F)F)c2)nnc2ccccc12 (racemic) [I-095] | 4.02 | 90 to 100 | 70 to 79 | 80 to 89 | 90 to 100 | 90 to 100 | – |
| O=C(N[C@H]1CCCc2ccc(Br)cc21)c1c(Oc2cccc(C(F)(F)F)c2)nnc2ccccc12 (racemic) [I-096] | 4.54 | – | – | 90 to 100 | 90 to 100 | 90 to 100 | – |
| Cc1ccc(CCNC(=O)c2c(Oc3cccc(C(F)(F)F)c3)nnc3ccccc23)o1 [I-075] | 3.6 | – | 90 to 100 | 90 to 100 | 90 to 100 | 90 to 100 | – |
| Cc1cnn(CCNC(=O)c2c(Oc3cccc(C(F)(F)F)c3)nnc3ccccc23)c1 [I-076] | 2.74 | – | – | 90 to 100 | 90 to 100 | 90 to 100 | 80 to 89 |
| O=C(N[C@H]1CCCc2ccc(Cl)cc21)c1c(Oc2cccc(C(F)(F)F)c2)nnc2ccccc12 [I-094] | 4.44 | – | 70 to 79 | 90 to 100 | 90 to 100 | 90 to 100 | – |
| N#Cc1ccc(C(F)(F)CNC(=O)c2c(Oc3cccc(C(F)(F)F)c3)nnc3ccccc23)c(Cl)c1 [I-098] | 3.94 | 90 to 100 | 80 to 89 | – | 90 to 100 | 90 to 100 | – |
| Cc1ccc(C(F)CNC(=O)c2c(Oc3cccc(C(F)F)c3)nnc3c2CCCC3)c(C)c1 (centres unmarked) [I-135] | 3.53 | – | 90 to 100 | 90 to 100 | 90 to 100 | 90 to 100 | – |
| O=C(NCCc1cccc2[nH]ccc12)c1c(Oc2cccc(C(F)(F)F)c2)nnc2ccccc12 [I-161] | – | – | – | – | 90 to 100 | 90 to 100 | – |
| Cc1ccc(C(F)(F)CNC(=O)c2c(Oc3cccc(C(F)(F)F)c3)nnc3cc(F)ccc23)c(C)c1 [I-166] | 4.74 | – | 90 to 100 | 90 to 100 | 90 to 100 | 90 to 100 | – |

Now from value to compound, other results behind:

| chromatographic logP [1] | SMILES | pest or weed control at 500 ppm (Botrytis cinerea [2]) [%] | inhibition at 20 ppm (Alternaria alternata) [%] | inhibition at 20 ppm [3] [%] | inhibition at 20 ppm (Pyrenophora teres) [%] | inhibition at 20 ppm (Botrytis cinerea [4]) [%] | pest or weed control at 500 ppm (Alternaria brassicae) [%] |
| --- | --- | --- | --- | --- | --- | --- | --- |
| 4.45 | CCc1cccc2c1OCC[C@@H]2NC(=O)c1c(Oc2cccc(C(F)(F)F)c2)nnc2ccccc12 (racemic) [I-168] | – | – | 90 to 100 | 90 to 100 | 90 to 100 | – |
| 4.44 | Cc1ccc2c(c1)[C@@H](NC(=O)c1c(Oc3cccc(C(F)(F)F)c3)nnc3ccccc13)CC(C)(C)O2 (racemic) [I-173] | – | – | – | 90 to 100 | 90 to 100 | – |
| 4.33 | O=C(NC[C@H](F)c1ccc(Cl)c(Cl)c1)c1c(Oc2cccc(C(F)(F)F)c2)nnc2ccccc12 (racemic) [I-182] | – | 90 to 100 | 80 to 89 | 90 to 100 | 80 to 89 | – |
| 4.66 | O=C(N[C@H]1CCCc2cc(Br)ccc21)c1c(Oc2cccc(C(F)(F)F)c2)nnc2ccccc12 (racemic) [I-193] | – | 70 to 79 | 90 to 100 | 90 to 100 | 90 to 100 | – |
| 4.82 | CC1(C)Cc2cc(Cl)c(F)cc2[C@@H](NC(=O)c2c(Oc3cccc(C(F)(F)F)c3)nnc3ccccc23)C1 (racemic) [I-197] | – | – | – | 90 to 100 | 90 to 100 | – |
| 5.16 | C=C(OCC)c1ccc(C(F)(F)CNC(=O)c2c(Oc3cccc(C(F)(F)F)c3)nnc3ccccc23)c(Cl)c1 [I-169] | – | – | 80 to 89 | 90 to 100 | 90 to 100 | 90 to 100 |
| 2.98 | O=C(N[C@H]1CCS(=O)(=O)c2ccccc21)c1c(Oc2cccc(C(F)(F)F)c2)nnc2ccccc12 [I-174] | – | – | 80 to 89 | 80 to 89 | 90 to 100 | – |
| 3.69 | O=C(N[C@H]1CCOc2cc(F)ccc21)c1c(Oc2cccc(C(F)(F)F)c2)nnc2ccccc12 [I-178] | – | – | 90 to 100 | 90 to 100 | 90 to 100 | 90 to 100 |
| 4.68 | O=C(NCC(F)(F)c1cc(Cl)sc1Cl)c1c(Oc2cccc(C(F)(F)F)c2)nnc2ccccc12 [I-199] | – | – | – | 90 to 100 | 80 to 89 | – |
| 4.33 | O=C(NCCOc1ccc(C(F)(F)F)cc1Cl)c1c(Oc2cccc(C(F)(F)F)c2)nnc2ccccc12 [I-203] | – | – | – | 90 to 100 | 70 to 79 | – |
| 2.78 | Cc1cc(C)n(CCNC(=O)c2c(Oc3cccc(C(F)(F)F)c3)nnc3ccccc23)n1 [I-240] | – | – | – | 90 to 100 | 80 to 89 | – |
| 3.3 | O=C(NCCc1ccc2[nH]ccc2c1)c1c(Oc2cccc(C(F)(F)F)c2)nnc2ccccc12 [I-249] | – | – | – | 90 to 100 | 90 to 100 | – |
